≈ marks a conversion by molar mass, not a printed value.
Key:
[1] = system: Mycobacterium tuberculosis; test: Antimycobacterial activity against Mycobacterium tuberculosis H37Rv ATCC 27294 by broth dilution method; type: functional
[2] = system: J774; test: Cytotoxicity against mouse J774 cells at 20 ug/ml after 24 hrs by MTT assay; type: cell-based; details: j774, 24 h
[3] = system: J774; test: Cytotoxicity against mouse J774 cells after 24 hrs by MTT assay; type: cell-based; details: J774, 24 h
[4] = Selectivity index, ratio of IC50 for mouse J774 cells to MIC for Mycobacterium tuberculosis H37Rv ATCC 27294; type: toxicity, cell-based; details: read-out: Selectivity Index
[5] = system: Mycobacterium tuberculosis; test: Antimycobacterial activity against Mycobacterium tuberculosis H37Rv ATCC 27294 infected in mouse J774 cells assessed as intracellular killing after 48 hrs by colony formation assay; type: functional; details: H37Rv ATCC 27294, 48 h
[6] = system: Mycobacterium tuberculosis; test: Bactericidal activity against Mycobacterium tuberculosis H37Rv ATCC 27294 by broth dilution method; type: functional

Row | Structure (SMILES) | MIC [1] [µM] | also measured
1 | O=C(Nc1ccccc1C(F)(F)F)c1cc([N+](=O)[O-])cc([N+](=O)[O-])c1 | 1.41 (≈ 0.501 µg/mL) | –
2 | Cc1ccc(CNC(=O)c2cc([N+](=O)[O-])cc([N+](=O)[O-])c2)cc1 | 3.17 (≈ 0.999 µg/mL) | –
3 | Cc1c([N+](=O)[O-])cc(C(=O)N[C@H](C)c2ccc(F)cc2)cc1[N+](=O)[O-] | 0.17 (≈ 0.059 µg/mL) | Activity [2]: Non-toxic; IC50 [3]: > 57.6 µM; selectivity ratio [4]: > 333; MIC [5]: 0.71 µM (≈ 0.247 µg/mL); MBC [6]: 0.17 µM (≈ 0.059 µg/mL)
4 | COc1ccc([C@@H](C)NC(=O)c2cc([N+](=O)[O-])cc([N+](=O)[O-])c2)cc1 | 2.9 (≈ 1 µg/mL) | –
5 | O=C(NCCc1ccccc1)c1cc([N+](=O)[O-])cc([N+](=O)[O-])c1 | 0.79 (≈ 0.249 µg/mL) | Activity [2]: Non-toxic; IC50 [3]: > 63.5 µM; selectivity ratio [4]: > 80; MIC [5]: 3.16 µM (≈ 0.996 µg/mL); MBC [6]: 0.79 µM (≈ 0.249 µg/mL)
6 | CC[C@@H](C)NC(=O)c1cc([N+](=O)[O-])cc([N+](=O)[O-])c1 | 1.87 (≈ 0.5 µg/mL) | –
7 | COc1ccc([C@@H](C)NC(=O)c2cc([N+](=O)[O-])c(C)c([N+](=O)[O-])c2)cc1 | 0.7 (≈ 0.252 µg/mL) | –
8 | Cc1c([N+](=O)[O-])cc(C(=O)N[C@H](C)c2ccccc2)cc1[N+](=O)[O-] | 0.36 (≈ 0.119 µg/mL) | –
9 | C[C@H](c1ccccc1)N(C)C(=O)c1cc([N+](=O)[O-])cc([N+](=O)[O-])c1 | 1.52 (≈ 0.501 µg/mL) | –
10 | O=C(NCCCCc1ccccc1)c1cc([N+](=O)[O-])cc([N+](=O)[O-])c1 | 0.35 (≈ 0.12 µg/mL) | –
11 | O=C(Nc1ccc(C(F)(F)F)cc1)c1cc([N+](=O)[O-])cc([N+](=O)[O-])c1 | 2.82 (≈ 1 µg/mL) | –
12 | CCCCC(CC)CNC(=O)c1cc([N+](=O)[O-])cc([N+](=O)[O-])c1 (stereo not given) | 0.19 (≈ 0.0614 µg/mL) | –
13 | Cc1ccc(CNC(=O)c2cc([N+](=O)[O-])c(C)c([N+](=O)[O-])c2)cc1 | 0.09 (≈ 0.0296 µg/mL) | –
14 | C[C@@H](NC(=O)c1cc([N+](=O)[O-])cc([N+](=O)[O-])c1)c1ccc(F)cc1 | > 12 | –
15 | CC[C@@H](NC(=O)c1cc([N+](=O)[O-])cc([N+](=O)[O-])c1)c1ccccc1 | 0.76 (≈ 0.25 µg/mL) | –
16 | Cc1c([N+](=O)[O-])cc(C(=O)N[C@H](C)c2ccc(Cl)cc2)cc1[N+](=O)[O-] | 1.38 (≈ 0.502 µg/mL) | –
17 | O=C(NC1CCCC1)c1cc([N+](=O)[O-])cc([N+](=O)[O-])c1 | 0.9 (≈ 0.251 µg/mL) | –
18 | CCCCC[C@H](C)NC(=O)c1cc([N+](=O)[O-])cc([N+](=O)[O-])c1 | 1.62 (≈ 0.501 µg/mL) | –
19 | CC[C@H](C)NC(=O)c1cc([N+](=O)[O-])cc([N+](=O)[O-])c1 | > 3.74 | –
20 | COc1ccc(CCNC(=O)c2cc([N+](=O)[O-])cc([N+](=O)[O-])c2)cc1 | 1.45 (≈ 0.501 µg/mL) | –
21 | Cc1ccc([C@H](C)NC(=O)c2cc([N+](=O)[O-])c(C)c([N+](=O)[O-])c2)cc1 | 11.7 (≈ 4 µg/mL) | –
22 | Cc1ccc(C(C)NC(=O)c2cc([N+](=O)[O-])c(C)c([N+](=O)[O-])c2)cc1 (racemic) | < 0.17 | Activity [2]: Non-toxic; IC50 [3]: > 58.2 µM; selectivity ratio [4]: > 1330; MIC [5]: 0.72 µM (≈ 0.247 µg/mL); MBC [6]: < 0.04 µM
23 | Cc1ccc([C@@H](C)NC(=O)c2cc([N+](=O)[O-])cc([N+](=O)[O-])c2)cc1 | 0.05 (≈ 0.0165 µg/mL) | Activity [2]: Non-toxic; IC50 [3]: > 60.8 µM; selectivity ratio [4]: > 1330; MIC [5]: 0.8 µM (≈ 0.263 µg/mL); MBC [6]: 0.2 µM (≈ 0.0659 µg/mL)
24 | Cc1c([N+](=O)[O-])cc(C(=O)N[C@@H](C)c2ccc(Cl)cc2)cc1[N+](=O)[O-] | > 5.51 | –
25 | CCC[C@@H](NC(=O)c1cc([N+](=O)[O-])cc([N+](=O)[O-])c1)c1ccccc1 | 2.91 (≈ 0.999 µg/mL) | –

Reference: ChEMBL document CHEMBL3132797, “Synthesis and biological evaluation of substituted N-alkylphenyl-3,5-dinitrobenzamide analogs as anti-TB agents” (Medchemcomm, 2014)
